Test results from patent US9750724B2, “Use of an aromatase inhibitor for the treatment of hypogonadism and related diseases” (Mereo BioPharma 2 Limited, priority 2011, dated 2017).

Legend:
[1] = Single ascending dose study in women, safety and bone density (DEXA); format: in vivo; conditions: single doses 0.01 mg through 20 mg, post-menopausal women
Procedure: Patients received either 0.1 mg, 1 mg, and 10 mg drug substance containing hard gelatin capsules or appropriate matching placebo capsules.
(§1) A minimal toxic dose (MTD) was not reached. […] Table 3 presents the PK parameters based on preliminary analysis of the concentration-time profile obtained from this study.

[2] = Single ascending dose study in pre- and post-menopausal women, pharmacokinetics; format: in vivo, human; conditions: for AUC(0-t): AUC (0-tlast) Mean; for Cmax: Cmax Mean
Excerpt: The drug concentration in plasma and/or serum samples can be determined by a number of different ways, e.g. HPLC or LC-MS/MS analyses. […]
as §1

[3] = Physicochemical properties of the crystalline compound; conditions: crystalline powder
[4] = molecular target: T1, human placental microsomal aromatase (Homo sapiens, UniProt P11511); conditions: microsomal fraction of human placenta; Batzl-Hartmann et al, 1994; cited from earlier work
T1 construct: from tissue; host or cells: human placenta, microsomal fraction
T1 sequence (P11511 1-503): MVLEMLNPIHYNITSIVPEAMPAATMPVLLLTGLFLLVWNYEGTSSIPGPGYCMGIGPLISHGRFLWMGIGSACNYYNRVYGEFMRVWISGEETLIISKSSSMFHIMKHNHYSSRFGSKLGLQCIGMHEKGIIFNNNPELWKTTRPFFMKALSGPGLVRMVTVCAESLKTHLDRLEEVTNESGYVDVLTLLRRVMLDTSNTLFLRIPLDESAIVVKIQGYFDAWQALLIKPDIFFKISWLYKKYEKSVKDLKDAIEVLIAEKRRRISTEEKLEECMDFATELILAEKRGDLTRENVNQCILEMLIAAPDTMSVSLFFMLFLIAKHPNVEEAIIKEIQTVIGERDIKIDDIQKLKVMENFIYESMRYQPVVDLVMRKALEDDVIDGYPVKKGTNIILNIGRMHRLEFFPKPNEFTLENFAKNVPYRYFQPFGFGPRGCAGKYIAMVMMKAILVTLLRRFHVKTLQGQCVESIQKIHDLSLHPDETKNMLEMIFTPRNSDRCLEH

[5] = system: serum testosterone and estradiol; experiment: 12 week open label dose-finding study (Part 1) in obese hypogonadotropic hypogonadal men; format: in vivo, human
Excerpt: The study is designed as a 2-part study, with Part 1 being open-label to best determine the appropriate dose levels to use in Part 2, which has a randomized, double-blind, placebo controlled design.
As set out above, this is a two-part study in obese, hypogonadotropic hypogonadal (OHH) men, wherein Part 1 is a single group, open label, non-randomized study establishing appropriate dosing. After all subjects have successfully completed 4 weeks of treatment, they continue for up to a total of 12 weeks of treatment. Then Part 2 follows as a parallel group, randomized, double-blind, placebo-controlled design, for 12 weeks of treatment, with an interim analysis after 4 weeks of treatment. Both Parts of the study have up to a 28 day screening period, a single baseline day, a 12 week treatment period (11 weekly doses), followed by a 3 month follow-up period.
Thus, for Part 1 of the study, it was decided to start with 0.01 mg as the loading dose, assess the testosterone response at 5 or 6 days after a single dose, and adjust the next weekly dose up or down based on the acute testosterone response. The weekly maintenance dose is not expected to exceed 0.5 mg. For at least the first 4 weeks of treatment, subject's sex steroid levels are measured prior to their subsequent dosing. The subsequent dose is the adjusted based on the prior response.
If free testosterone is above normal, the Week 2 dose will be 1/10 (0.001 mg) of the loading dose. If free testosterone is below normal, the Week 2 dose will be ½ of the loading dose (0.005 mg). Subsequent weekly doses are adjusted on a ½ log order to achieve normalization of free testosterone levels.
Assessments and evaluations: The following assessments will be performed during the study: • 1. Background, demographic and administrative assessments • Inclusion/exclusion criteria; Relevant medical history/Current medical conditions • Demography • Physical examination, including digital prostate examination • International Prostate Symptom Score (IPSS) • Hepatitis screen, HIV screen • Alcohol test, Drug screen • Prolactin, ferritin and thyroid stimulating hormone (TSH) • Drug administration: each time study drug is administered • Study Completion information • Comments • 2. Safety and tolerability assessments • Vital signs and body measurements • Body height (BMI will be calculated) • Body weight* • Body temperature • Blood pressure, pulse rate • ECG evaluations • Hematology; Blood chemistry; Urinalysis • Prostate specific antigen (PSA) • Adverse events: from time of first administration of study drug until Study Completion. Adverse events occurring before starting study treatment but after signing the informed consent form are recorded on the Medical History/Current Medical Conditions Case Report Form. • Serious adverse events: from time of consent until 30 days after Study Completion • Concomitant medications/Significant non-drug therapies: Refer to entry criteria and Concomitant medication for details of recording requirements for allowed and restricted medications during the study. • 3. Pharmacokinetic (PK) blood assessments: PK samples will be collected on multiple occasions during the treatment phase of the study. PK assessments will also be collected every 6 weeks during the safety follow-up period. […]

[6] = female, human, in vivo, 0.01 mg
[7] = female, human, in vivo, 0.03 mg
[8] = weekly oral doses 0.003 mg to 5 mg

Q: Which “minimal toxic dose (MTD)” value [1] does the source give for `N#Cc1ccc(C(F)(c2ccc(C#N)cc2)n2cncn2)cc1` [CGP47645, 4,4′-[fluoro-(1-H-1,2,4-triazol-1-yl)methylene]bisbenzonitrile] here?
A: not reached

Q: What about the Tmax [2, 6] of the same molecule?
A: 0.0417 days

Q: What about the AUC(0-t) [2, 6] of the same molecule?
A: 1.4 ng·h/mL

Q: What about the Cmax [2, 6] of the same molecule?
A: 0.2 ng/mL

Q: And the half-life ([2]; female, human, in vivo, 0.01 mg, T1/2 Mean)?
A: 2.3 days

Q: What about the AUC(0-t) [2, 7] of the same molecule?
A: 24.1 ng·h/mL

Q: What about the Cmax [2, 7] of the same molecule?
A: 0.4 ng/mL

Q: What about the half-life ([2]; female, human, in vivo, 0.03 mg, T1/2 Mean) of the same molecule?
A: 16.5 days

Q: What about the “T1/2 Mean” value ([2]; female, human, in vivo, 0.1 mg) of the same molecule?
A: 23.5 days

Q: And the Tmax ([2]; female, human, in vivo, 0.1 mg)?
A: 0.0417 days

Q: And the “Tmax Median” value ([2]; female, human, in vivo, 0.1 mg)?
A: 0.042 days

Q: What about the AUC(0-t) ([2]; female, human, in vivo, 0.1 mg) of the same molecule?
A: 123 ng·h/mL

Q: What about the Cmax ([2]; female, human, in vivo, 0.1 mg) of the same molecule?
A: 1.8 ng/mL

Q: What about the half-life ([2]; female, human, in vivo, 0.1 mg, T1/2 Mean) of the same molecule?
A: 18.2 days

Q: And the Tmax ([2]; female, human, in vivo, 0.3 mg)?
A: 0.0417 days

Q: What about the AUC(0-t) ([2]; female, human, in vivo, 0.3 mg) of the same molecule?
A: 605 ng·h/mL

Q: What about the Cmax ([2]; female, human, in vivo, 0.3 mg) of the same molecule?
A: 5.1 ng/mL

Q: What about the half-life ([2]; female, human, in vivo, 0.3 mg, T1/2 Mean) of the same molecule?
A: 23.5 days

Q: And the Tmax ([2]; female, human, in vivo, 1 mg)?
A: 0.0417 days

Q: What about the AUC(0-t) ([2]; female, human, in vivo, 1 mg) of the same molecule?
A: 3200 ng·h/mL

Q: And the Cmax ([2]; female, human, in vivo, 1 mg)?
A: 12.8 ng/mL

Q: And the half-life ([2]; female, human, in vivo, 1 mg, T1/2 Mean)?
A: 22.4 days

Q: What about the Tmax ([2]; female, human, in vivo, 3 mg) of the same molecule?
A: 0.0417 days

Q: And the AUC(0-t) ([2]; female, human, in vivo, 3 mg)?
A: 10100 ng·h/mL

Q: What about the Cmax ([2]; female, human, in vivo, 3 mg) of the same molecule?
A: 38.4 ng/mL

Q: What about the half-life ([2]; female, human, in vivo, 3 mg, T1/2 Mean) of the same molecule?
A: 25 days

Q: What about the Tmax ([2]; female, human, in vivo, 10 mg) of the same molecule?
A: 0.0833 days

Q: What about the AUC(0-t) ([2]; female, human, in vivo, 10 mg) of the same molecule?
A: 41700 ng·h/mL

Q: What about the Cmax ([2]; female, human, in vivo, 10 mg) of the same molecule?
A: 124 ng/mL

Q: And the half-life ([2]; female, human, in vivo, 10 mg, T1/2 Mean)?
A: 27.3 days

Q: And the Tmax ([2]; female, human, in vivo, 20 mg)?
A: 0.0833 days

Q: What about the AUC(0-t) ([2]; female, human, in vivo, 20 mg) of the same molecule?
A: 76700 ng·h/mL

Q: What about the Cmax ([2]; female, human, in vivo, 20 mg) of the same molecule?
A: 270 ng/mL

Q: What about the half-life ([2]; female, human, in vivo, 20 mg, T1/2 Mean) of the same molecule?
A: 26.9 days

Q: What about the half-life ([2]; female, human, in vivo, half life) of the same molecule?
A: ~25 days

Q: What about the half-life ([2]; female, human, in vivo, half-life in serum) of the same molecule?
A: 22 to 29 days

Q: What about the Tmax ([2]; female, human, in vivo, po) of the same molecule?
A: 0.021 to 0.083 days

Q: What about the “median Tmax” value ([2]; female, human, in vivo, po) of the same molecule?
A: ≤ 0.042 days

Q: And the half-life ([2]; female, human, in vivo, po, half-life)?
A: 23 to 27 days

Q: What about the “differences in pharmacokinetics between post- and pre-menopausal women” value ([2]; in vivo) of the same molecule?
A: No differences

Q: And the “dose proportionality of pharmacokinetics” value ([2]; single doses 0.01 to 20 mg, women)?
A: dose proportional pharmacokinetics

Q: And the hygroscopicity [3]?
A: not hygroscopic

Q: And the “mode of aromatase inhibition” value [4]?
A: competitive inhibitor

Q: What about the tolerability ([5]; 14 obese hypogonadal men, weekly oral doses 0.003 mg to 5 mg, 12 weeks) of the same molecule?
A: tolerated CGP47645 well

Q: What about the “testosterone normalization (RIA)” value ([5]; 14 obese hypogonadal men, weekly oral doses 0.003 mg to 5 mg, during treatment) of the same molecule?
A: rose in all men individually into the normal range

Q: What about the “average serum estradiol at week 12” value ([5]; baseline 24±4.9 pg/mL, LC-MS) of the same molecule?
A: 18 ± 9.4 pg/mL

Q: What about the “average testosterone at week 12” value ([5]; baseline 250±22.3 ng/dL, RIA) of the same molecule?
A: 550 ± 191.8 ng/dL

Q: And the “average change of testosterone from baseline to week 12” value [5, 8]?
A: approximately 2 fold

Q: And the “reduction of serum estradiol (LC-MS)” value [5, 8]?
A: 30-50%
